Reference: patent US4141986A, “Antibiotics 890A2 and 890A5” (Merck & Co., Inc., priority 1977, dated 1979)

Columns and labels:
Type in all cases: cell-based
[1] = test system: Vibrio percolans resistant to ceph. C) MB-2566; experiment: In vitro antibacterial spectrum profile, agar diffusion; conditions: Comamonas terrigena, read-out: Inhib. Zone Diam.
[2] = test system: Escherichia coli MB-1418; experiment: as above; conditions: read-out: Inhib. Zone Diam.
[3] = test system: Streptoccocus faecium MB-2820; experiment: as above; conditions: read-out: Inhib. Zone Diam.
[4] = test system: Sarcina lutea ATCC 9341; experiment: as above; conditions: Micrococcus luteus, ATCC9341, read-out: Inhib. Zone Diam.
[5] = test system: Vibrio percolans ATCC 8461; experiment: as above; conditions: Comamonas terrigena, ATCC8461, read-out: Inhib. Zone Diam.
[6] = test system: Proteus vulgaris MB-1012; experiment: as above; conditions: read-out: Inhib. Zone Diam.
[7] = test system: Klebsiella pneumoniae MB-1264; experiment: as above; conditions: read-out: Inhib. Zone Diam.
[8] = test system: Vibrio percolans +2 × 10^5 units/ml. penicillinase MB-1272; experiment: In vitro antibacterial spectrum profile, agar diffusion, with penicillinase; conditions: Comamonas terrigena, read-out: Inhib. Zone Diam.
[9] = test system: Escherichia coli ATCC 9637; experiment: In vitro antibacterial spectrum profile, agar diffusion; conditions: read-out: Inhib. Zone Diam.
[10] = test system: Vibrio percolans + Aerobacter Lactamase MB-1272; experiment: In vitro antibacterial spectrum profile, agar diffusion, with Aerobacter lactamase; conditions: Comamonas terrigena, read-out: Inhib. Zone Diam.
[11] = test system: Pseudomonas stutzeri ATCC 11607; experiment: In vitro antibacterial spectrum profile, agar diffusion; conditions: Stutzerimonas stutzeri, ATCC11607, read-out: Inhib. Zone Diam.
[12] = test system: Brucella bronchiseptica ATCC 4617; experiment: microbe, parasite or virus in culture; conditions: Bordetella bronchiseptica, ATCC4617, read-out: Inhib. Zone Diam.
[13] = test system: Bacillus subtilis ATCC 6633; experiment: In vitro antibacterial spectrum profile, agar diffusion
[14] = test system: Alcaligenes faecalis ATCC 213; experiment: as above; conditions: read-out: Inhib. Zone Diam.
[15] = test system: Bacillus sp. MB-633; experiment: as above; conditions: read-out: Inhib. Zone Diam.
Protocol: (§1) The test to determine the antibiotic spectrum profile of antibiotic 890A2 is carried out by saturating 1/4 inch diameter paper discs in a solution of antibiotic 890A2 in 5% methanol at a concentration of 5 μg./ml.; air drying the saturated paper discs and placing them on the surface of 100 × 15 mm. petri plates containing 5 ml. of seeded nutrient agar plus 0.2% yeast extract.
(§2) The test to determine the antibiotic spectrum profile of antibiotic 890A5 is carried out by application of a 0.015 ml. droplet of a 33 μg./ml. aqueous solution of the antibiotic on the surface of a 100 × 15 mm. petri plate containing 5 ml. of seeded nutrient agar plus 0.2% yeast extract.

[16] = test system: Proteus vulgaris ATCC 21100; experiment: as above; conditions: read-out: Inhib. Zone Diam.
[17] = test system: Staphylococcus aureus MB-698; experiment: as above; conditions: read-out: Inhib. Zone Diam.
[18] = test system: Proteus mirabilis MB-3126; experiment: as above; conditions: read-out: Inhib. Zone Diam.
[19] = test system: Pseudomonas aeruginosa MB-979; experiment: as above; conditions: read-out: Inhib. Zone Diam.
[20] = test system: Staphylococcus aureus (res. methicillin) MB-2949; experiment: as above; conditions: read-out: Inhib. Zone Diam.
[21] = test system: Proteus vulgaris (episome) MB-2112; experiment: as above; conditions: read-out: Inhib. Zone Diam.
Protocol: as §1, §2
^a this episome confers resistance to tetracycline, chloramphenicol,
kanamycin and streptomycin at a concentration of 20 μg./ml. and
neomycin at a concentration of 25 μg./ml. and sulfa drugs.

[22] = test system: Serratia marcesens ATCC 990; experiment: as above; conditions: read-out: Inhib. Zone Diam.
[23] = test system: Streptococcus faecalis MB-753; experiment: as above; conditions: Enterococcus faecalis, MB753, read-out: Inhib. Zone Diam.
[24] = test system: Pseudomonas aeruginosa MB-2824; experiment: as above; conditions: read-out: Inhib. Zone Diam.
[25] = test system: Xanthomonas vesicatoria MB-815; experiment: as above; conditions: read-out: Inhib. Zone Diam.
[26] = test system: Aerobacter aerogenes MB-835; experiment: as above; conditions: Klebsiella aerogenes, MB835, read-out: Inhib. Zone Diam.
[27] = test system: Streptococcus agalactiae MB-2875; experiment: as above; conditions: read-out: Inhib. Zone Diam.
[28] = 890A2 5 μg./ml., 1/4 inch paper disc
[29] = 890A5 33 μg./ml., 0.015 ml. droplet

In the case of `CC(=O)NC=CSC1=C(C(=O)O)N2C(=O)C(C(C)O)C2C1` (stereo not drawn) [Antibiotic 890A2], the zone of inhibition at 5 µg/mL [1] is reported as 11 mm, the zone of inhibition at 5 µg/mL ([2]; MB1418, 890A2 5 μg./ml., 1/4 inch paper disc) is reported as 32 mm and the zone of inhibition at 5 µg/mL [3, 28] is reported as 22 mm. The zone of inhibition at 5 µg/mL [4, 28] was 42 mm, the zone of inhibition at 5 µg/mL [5, 28] was 31 mm and the zone of inhibition at 5 µg/mL ([6]; MB1012, 890A2 5 μg./ml., 1/4 inch paper disc) was 11 mm. The zone of inhibition at 5 µg/mL ([7]; MB1264, 890A2 5 μg./ml., 1/4 inch paper disc) was 31 mm, the zone of inhibition at 5 µg/mL [8, 28] was 7 mm and the zone of inhibition at 5 µg/mL ([9]; ATCC9637, 890A2 5 μg./ml., 1/4 inch paper disc) was 29 mm. The zone of inhibition at 5 µg/mL [10] was 31 mm, the zone of inhibition at 5 µg/mL [11, 28] was 19 mm and the zone of inhibition at 5 µg/mL [12] was 29 mm. For the same compound, the zone of inhibition at 5 µg/mL ([13]; ATCC6633, 890A2 5 μg./ml., 1/4 inch paper disc, read-out: Inhib. Zone Diam.) was 42 mm, the zone of inhibition at 5 µg/mL ([14]; ATCC213, 890A2 5 μg./ml., 1/4 inch paper disc) was 34 mm and the zone of inhibition at 5 µg/mL ([15]; SP.MB633, 890A2 5 μg./ml., 1/4 inch paper disc) was 40 mm. For the same compound, the zone of inhibition at 5 µg/mL ([16]; ATCC21100, 890A2 5 μg./ml., 1/4 inch paper disc) was 30 mm, the zone of inhibition at 5 µg/mL ([17]; MB698, 890A2 5 μg./ml., 1/4 inch paper disc) was 30 mm and the zone of inhibition at 5 µg/mL ([18]; MB3126, 890A2 5 μg./ml., 1/4 inch paper disc) was 22 mm. The zone of inhibition at 5 µg/mL ([19]; MB979, 890A2 5 μg./ml., 1/4 inch paper disc) was 0 mm, the zone of inhibition at 5 µg/mL [20, 28] was 11 mm and the zone of inhibition at 5 µg/mL [21, 28] was 33 mm. For the same compound, the zone of inhibition at 5 µg/mL ([22]; ATCC990, 890A2 5 μg./ml., 1/4 inch paper disc) was 23 mm, the zone of inhibition at 5 µg/mL [23, 28] was 12 mm and the zone of inhibition at 5 µg/mL ([24]; MB2824, 890A2 5 μg./ml., 1/4 inch paper disc) was 13 mm. For the same compound, the zone of inhibition at 5 µg/mL ([25]; MB815, 890A2 5 μg./ml., 1/4 inch paper disc) was 29 mm, the zone of inhibition at 5 µg/mL [26, 28] was 27 mm and the zone of inhibition at 5 µg/mL ([27]; MB2875, 890A2 5 μg./ml., 1/4 inch paper disc) was 32 mm.
Compound `CC(=O)NC=CSC1=C(C(=O)O)N2C(=O)C(C(C)O)C2C1` (stereo not drawn) [Antibiotic 890A5] has a zone of inhibition at 33 µg/mL [1] of 35 mm, a zone of inhibition at 33 µg/mL ([2]; MB1418, 890A5 33 μg./ml., 0.015 ml. droplet) of 27 mm and a zone of inhibition at 33 µg/mL [3, 29] of 0 mm. It also gave a zone of inhibition at 33 µg/mL [4, 29] of 40 mm, a zone of inhibition at 33 µg/mL [5, 29] of 32 mm and a zone of inhibition at 33 µg/mL ([6]; MB1012, 890A5 33 μg./ml., 0.015 ml. droplet) of 23 mm. The zone of inhibition at 33 µg/mL ([7]; MB1264, 890A5 33 μg./ml., 0.015 ml. droplet) was 27 mm, the zone of inhibition at 33 µg/mL [8, 29] was 40 mm and the zone of inhibition at 33 µg/mL ([9]; ATCC9637, 890A5 33 μg./ml., 0.015 ml. droplet) was 24 mm. It also gave a zone of inhibition at 33 µg/mL [10] of 36 mm, a zone of inhibition at 33 µg/mL [11, 29] of 14 mm and a zone of inhibition at 33 µg/mL [12] of 22 mm. For the same compound, the zone of inhibition at 33 µg/mL ([13]; ATCC6633, read-out: Inhib. Zone Diam.) was 27 mm, the zone of inhibition at 33 µg/mL ([14]; ATCC213, 890A5 33 μg./ml., 0.015 ml. droplet) was 25 mm and the zone of inhibition at 33 µg/mL ([15]; SP.MB633, 890A5 33 μg./ml., 0.015 ml. droplet) was 18 mm. It also gave a zone of inhibition at 33 µg/mL ([16]; ATCC21100, 890A5 33 μg./ml., 0.015 ml. droplet) of 27 mm, a zone of inhibition at 33 µg/mL ([17]; MB698, 890A5 33 μg./ml., 0.015 ml. droplet) of 35 mm and a zone of inhibition at 33 µg/mL ([18]; MB3126, 890A5 33 μg./ml., 0.015 ml. droplet) of 20 mm. The zone of inhibition at 33 µg/mL ([19]; MB979, 890A5 33 μg./ml., 0.015 ml. droplet) was 0 mm, the zone of inhibition at 33 µg/mL [20] was 15 mm and the zone of inhibition at 33 µg/mL [21, 29] was 23 mm. It also gave a zone of inhibition at 33 µg/mL ([22]; ATCC990, 890A5 33 μg./ml., 0.015 ml. droplet) of 29 mm, a zone of inhibition at 33 µg/mL [23, 29] of 0 mm and a zone of inhibition at 33 µg/mL ([24]; MB2824, 890A5 33 μg./ml., 0.015 ml. droplet) of 0 mm. It also gave a zone of inhibition at 33 µg/mL ([25]; MB815, 890A5 33 μg./ml., 0.015 ml. droplet) of 20 mm, a zone of inhibition at 33 µg/mL [26, 29] of 24 mm and a zone of inhibition at 33 µg/mL ([27]; MB2875, 890A5 33 μg./ml., 0.015 ml. droplet) of 27 mm.
